For this data set the following is noted: Liquid, Closed cell (Static) method.

Numbers after ± are expanded uncertainties.

For the molecule `FC(F)F` [trifluoromethane], the “vapor or sublimation pressure” value is given as 4171.7 ± 11 kPa (293.18 K) and 4709.3 ± 12 kPa (298.15 K).

As to `CCC` [propane], the “vapor or sublimation pressure” value came to 836.8 ± 2.4 kPa (293.18 K); 950.8 ± 2.8 kPa (298.15 K); 1380.1 ± 10 kPa (313.15 K); 1713 ± 4.5 kPa (323.15 K); 3135.4 ± 6.2 kPa (353.15 K).

As usually defined, the vapor or sublimation pressure is the equilibrium pressure above the liquid or solid.

Source of the values: the NIST ThermoML archive (doi:10.1016/j.jct.2016.12.021).
